34 compounds from US12049439B2 (OrsoBio, Inc., priority 2018, dated 2024) can be followed below.

Each structure is given as a SMILES string.

This assay concerns PC-3 cells. The assay is described as follows: PC-3 Oxygen Rate Consumption (OCR) Assay. As to conditions: Homo sapiens, 0.05 h, medium with 2% FBS, OCR at 3-min post-injection normalized to % increase over DMSO-treated cells, concentration for half-maximal OCR increase, read-out: EC50-PC3-OCR-FBS-3min. Format: cell-based. The essentials:
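Oxygen consumption read on Seahorse XFe96: three basal measurements, then compound injection and 10 cycles over 30 min. EC50 defined as concentration giving half-maximal OCR rise, using 3-min post-injection values as % above DMSO controls, six replicates per treatment, in PC-3 cells in glucose/pyruvate medium.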
For orientation: EC50 means the concentration that produces a half-maximal response. With `CS(=O)(=O)Nc1ccc(C(F)(F)F)cc1C(=O)NC12CC(C(F)(F)F)(C1)C2` [Example 166, 2-(methylsulfonamido)-5-(trifluoromethyl)-N-(3-(trifluoromethyl)bicyclo[1.1.1]pentan-1-yl)benzamide], the 50% effective concentration (EC50) was determined as 1.07 µM. The value for `CS(=O)(=O)Nc1ccc(S(F)(F)(F)(F)F)cc1C(=O)NC12CCC(C#N)(CC1)CC2` [Example 167, N-(4-cyanobicyclo[2.2.2]octan-1-yl)-2-(methylsulfonamido)-5-(pentafluoro-λ^6-sulfanyl)benzamide] was 5.88 µM. Consider `CS(=O)(=O)Nc1cc(C(F)(F)F)ccc1C(=O)NC12CCC(C#N)(CC1)CC2` [Example 168, N-(4-cyanobicyclo[2.2.2]octan-1-yl)-2-(methylsulfonamido)-4-(trifluoromethyl)benzamide], for which the EC50 came out at 15 µM. The value for `COC12CC(NC(=O)c3cc(C(F)(F)F)ccc3NS(=O)(=O)C(C)(C)C)(C1)C2` [Example 169, 2-((1,1-dimethylethyl)sulfonamido)-N-(3-methoxybicyclo[1.1.1]pentan-1-yl)-5-(trifluoromethyl)benzamide] was 11.4 µM; that for `COC12CC(NC(=O)c3cc(C(F)(F)F)ccc3NS(C)(=O)=O)(C1)C2` [Example 170, N-(3-methoxybicyclo[1.1.1]pentan-1-yl)-2-(methylsulfonamido)-5-(trifluoromethyl)benzamide] was 44.8 µM.

Regarding `CC(C)(C)S(=O)(=O)Nc1ccc(C(F)(F)F)cc1C(=O)NC12CCC(O)(CC1)CC2` [Example 171, 2-((1,1-dimethylethyl)sulfonamido)-N-(4-hydroxybicyclo[2.2.2]octan-1-yl)-5-(trifluoromethyl)benzamide], the concentration giving a half-maximal response (EC50) turned out to be 112 µM. With `CC(C)(C)S(=O)(=O)Nc1ccc(C(F)(F)F)cc1C(=O)NC12CCC(C#N)(CC1)C2` [Example 172, N-(4-cyanobicyclo[2.2.1]heptan-1-yl)-2-((1,1-dimethylethyl)sulfonamido)-5-(trifluoromethyl)benzamide] the figure was 1.66 µM; with `CS(=O)(=O)Nc1ccc(C(F)(F)F)cc1C(=O)NC12CCC(C#N)(CC1)C2` [Example 173, N-(4-cyanobicyclo[2.2.1]heptan-1-yl)-2-(methylsulfonamido)-5-(trifluoromethyl)benzamide], 26.4 µM. With `CN(C)S(=O)(=O)Nc1ccc(C(F)(F)F)cc1C(=O)NC1CC2CCC(C1)N2S(C)(=O)=O` (stereo not shown) [Example 174, 2-((N,N-dimethylsulfamoyl)amino)-N-(8-(methylsulfonyl)-8-azabicyclo[3.2.1]octan-3-yl)-5-(trifluoromethyl)benzamide] the figure was 108 µM; with `CS(=O)(=O)Nc1ccc(C(F)(F)F)cc1C(=O)NC12CC3CC(CC(C#N)(C3)C1)C2` [Example 175, N-((1R,5R)-3-cyanoadamantan-1-yl)-2-(methylsulfonamido)-5-(trifluoromethyl)benzamide], 5.98 µM; with `CC(C)(C)S(=O)(=O)Nc1ccc(C(F)(F)F)cc1C(=O)NC12CC3CC(CC(C#N)(C3)C1)C2` [Example 176, N-((1R,5R)-3-cyanoadamantan-1-yl)-2-((1,1-dimethylethyl)sulfonamido)-5-(trifluoromethyl)benzamide], 1.7 µM. The value for `CN(C)S(=O)(=O)Nc1ccc(C(F)(F)F)cc1C(=O)NC12CC3CC(CC(C#N)(C3)C1)C2` [Example 177, N-((1R,5R)-3-cyanoadamantan-1-yl)-2-((N,N-dimethylsulfamoyl)amino)-5-(trifluoromethyl)benzamide] was 1.86 µM. In the case of `N#CC12CCC(NC(=O)c3cc(C(F)(F)F)ccc3NS(=O)(=O)N3CCOCC3)(CC1)CC2` [Example 178, N-(4-cyanobicyclo[2.2.2]octan-1-yl)-2-(morpholine-4-sulfonamido)-5-(trifluoromethyl)benzamide], the EC50 turned out to be 5.93 µM. Take `N#CC12CCC(NC(=O)c3cc(C(F)(F)F)ccc3NS(=O)(=O)N3CCC3)(CC1)CC2` [Example 179, 2-(azetidine-1-sulfonamido)-N-(4-cyanobicyclo[2.2.2]octan-1-yl)-5-(trifluoromethyl)benzamide]: the EC50 is 8.84 µM. The value for `CP(C)(=O)c1ccc(S(=O)(=O)Nc2cc(C(F)(F)F)ccc2C(=O)NC23CC4CC(CC(C#N)(C4)C2)C3)cc1` [Example 180] was at least 200 µM. With `CCP(=O)(CC)c1ccc(S(=O)(=O)Nc2cc(C(F)(F)F)ccc2C(=O)NC23CC4CC(CC(C#N)(C4)C2)C3)cc1` [Example 181] the figure was 114 µM; with `COC1CN(S(=O)(=O)Nc2ccc(C(F)(F)F)cc2C(=O)NC23CCC(C#N)(CC2)CC3)C1` [Example 182, N-(4-cyanobicyclo[2.2.2]octan-1-yl)-2-((3-methoxyazetidine)-1-sulfonamido)-5-(trifluoromethyl)benzamide], 13 µM; with `CS(=O)(=O)Nc1ccc(C(F)(F)F)cc1C(=O)NC12CCC(C(F)(F)F)(CC1)CC2` [Example 183, 2-(methylsulfonamido)-5-(trifluoromethyl)-N-(4-(trifluoromethyl)bicyclo[2.2.2]octan-1-yl)benzamide], 0.824 µM. The value for `CS(=O)(=O)Nc1ccc(S(F)(F)(F)(F)F)cc1C(=O)NC1CC2CCC(C1)O2` (stereo not shown) [Example 184, N-(8-oxabicyclo[3.2.1]octan-3-yl)-2-(methylsulfonamido)-5-(pentafluoro-λ^6-sulfanyl)benzamide] was 48.1 µM; that for `CS(=O)(=O)Nc1ccc(OC(F)(F)F)cc1C(=O)NC12CCC(C#N)(CC1)CC2` [Example 185, N-(4-cyanobicyclo[2.2.2]octan-1-yl)-2-(methylsulfonamido)-5-(trifluoromethoxy)benzamide] was 32 µM.

Turning to `CC(C)(C)P(=O)(c1ccc(S(=O)(=O)Nc2cc(C(F)(F)F)ccc2C(=O)NC23CCC(C#N)(CC2)CC3)cc1)C(C)(C)C` [Example 186, N-(4-cyanobicyclo[2.2.2]octan-1-yl)-2-((4-(di-tert-butylphosphoryl)phenyl)sulfonamido)-4-(trifluoromethyl)benzamide], the concentration giving a half-maximal response (EC50) worked out at 12.6 µM.

`CS(=O)(=O)Nc1ccc(C(F)(F)F)cc1C(=O)NC12C3C4C1C1C2C3C41C#N` [Example 187, N-((2r,3R,4r,5S)-4-cyanocuban-1-yl)-2-(methylsulfonamido)-5-(trifluoromethyl)benzamide]: the EC50 worked out at 11.5 µM. Regarding `CN(C)S(=O)(=O)Nc1cc(F)ccc1C(=O)NC12CC(C(F)(F)F)(C1)C2` [Example 188, 2-((N,N-dimethylsulfamoyl)amino)-4-fluoro-N-(3-(trifluoromethyl)bicyclo[1.1.1]pentan-1-yl)benzamide], the concentration for a half-maximal effect (EC50) turned out to be 3.29 µM. Take `CN(C)S(=O)(=O)Nc1ccc(C(F)(F)F)cc1C(=O)NC12CC(C(F)(F)F)(C1)C2` [Example 189, 2-((N,N-dimethylsulfamoyl)amino)-5-(trifluoromethyl)-N-(3-(trifluoromethyl)bicyclo[1.1.1]pentan-1-yl)benzamide]: the EC50 stood at 0.511 µM.

In the case of `CN(C)S(=O)(=O)Nc1ccc(C(F)(F)F)cc1C(=O)NC12CCC(C#N)(CC1)CC2` [Example 190, N-(4-cyanobicyclo[2.2.2]octan-1-yl)-2-((N,N-dimethylsulfamoyl)amino)-5-(trifluoromethyl)benzamide], the EC50 is 4.15 µM.

`CC(C)(C)S(=O)(=O)Nc1ccc(C(F)(F)F)cc1C(=O)NC12CCC(C#N)(CC1)CC2` [Example 191, N-(4-cyanobicyclo[2.2.2]octan-1-yl)-2-((1,1-dimethylethyl)sulfonamido)-5-(trifluoromethyl)benzamide]: the concentration giving a half-maximal response (EC50) is 1.76 µM. The value for `CC(C)(C)[S+]([O-])Nc1ccc(C(F)(F)F)cc1C(=O)NC12CC(C(F)(F)F)(C1)C2` (stereo not shown) [Example 192, 2-((tert-butylsulfinyl)amino)-5-(trifluoromethyl)-N-(3-(trifluoromethyl)bicyclo[1.1.1]pentan-1-yl)benzamide] was 14.7 µM. The value for `O=C(NC12CC(C(F)(F)F)(C1)C2)c1cc(C(F)(F)F)ccc1NS(=O)(=O)N1CCS(=O)(=O)CC1` [Example 193, 2-((1,1-dioxidothiomorpholine)-4-sulfonamido)-5-(trifluoromethyl)-N-(3-(trifluoromethyl)bicyclo[1.1.1]pentan-1-yl)benzamide] was 9.95 µM; that for `CS(=O)(=O)Nc1cc(Br)ccc1C(=O)NC12CCC(C#N)(CC1)CC2` [Example 194, 4-bromo-N-(4-cyanobicyclo[2.2.2]octan-1-yl)-2-(methylsulfonamido)benzamide] was at least 50 µM.

For `CS(=O)(=O)Nc1ccc(C(F)(F)F)cc1C(=O)NC1CC2(CC(=O)C2)C1` [Example 195, 2-(methylsulfonamido)-N-(6-oxospiro[3.3]heptan-2-yl)-5-(trifluoromethyl)benzamide], the 50% effective concentration (EC50) turned out to be 67.5 µM. The value for `N#CC12CCC(NC(=O)c3cc(C(F)(F)F)ccc3NS(=O)(=O)Cc3ccccc3)(CC1)CC2` [Example 196, N-(4-cyanobicyclo[2.2.2]octan-1-yl)-2-((phenylmethyl)sulfonamido)-5-(trifluoromethyl)benzamide] was 1.38 µM; that for `O=C(NC12CCC(F)(CC1)CC2)c1cc(C(F)(F)F)ccc1NS(=O)(=O)Cc1ccccc1` [Example 197, N-(4-fluorobicyclo[2.2.2]octan-1-yl)-2-((phenylmethyl)sulfonamido)-5-(trifluoromethyl)benzamide] was 0.893 µM; that for `CS(=O)(=O)Nc1cc(F)ccc1C(=O)NC12CCC(C#N)(CC1)CC2` [Example 198, N-(4-cyanobicyclo[2.2.2]octan-1-yl)-4-fluoro-2-(methylsulfonamido)benzamide] was at least 200 µM. The value for `CS(=O)(=O)Nc1cc(F)ccc1C(=O)NC12CCC(F)(CC1)CC2` [Example 199, 4-fluoro-N-(4-fluorobicyclo[2.2.2]octan-1-yl)-2-(methylsulfonamido)benzamide] was at least 100 µM.
